Measured values reported in patent publication US20090018146A1, “Combination Therapy with Triterpenoid Compounds and Proteasome Inhibitors” (Research Development Corporation, priority 2005, published 2009).

Legend:
[1] = tested on: XIAP; test: Western blot of XIAP protein in Jurkat cells; assay type: cell-based, human
Method: (§1) Jurkat T cells (2 μg/ml=1 μM), U-937 (4 μg/ml), MJ (5 μg/ml), and HH cells (2.5 μg/ml) were treated for 0-24 hours with the indicated concentrations of avicin D. PBLs from the patients or normal blood were treated with 5 μg/ml of avicin D for 24 hours.
(§2) At the end of treatments, cells were harvested, washed with sterile ice-cold PBS and cytoplasmic extracts (CE) were prepared by lysing the cells in CE buffer containing 10 mM Hepes-Cl pH 7.5, 10 mM KCl, 0.1 mM EDTA, 0.1 mM EGTA, 0.3% NP40, and a protease inhibitor cocktail (Sigma). After centrifugation and separating the supernatant (CE proteins), the pellet was resuspended in a buffer containing 20 mM Hepes-Cl, 400 mM NaCl, 1 mM EDTA, 1 mM EGTA, and protease inhibitor cocktail (Sigma). The nuclear protein extraction proceeded for 30 min. on ice followed by centrifugation at 14,000 rpm for 5 min at 4° C. The clear supernatant containing nuclear proteins (NE) was collected, glycerol (10%) was added, and proteins stored at −80° C. until use.
(§3) SDS-PAGE and immunoblot procedures were essentially performed as described (Sambrook, 1989). Briefly, cytoplasmic and nuclear proteins were resolved on SDS-PAGE, blotted on PVDF membranes (BioRad) and probed with various antibodies followed with anti-rabbit, anti-mouse antibody conjugated to horseradish peroxidase (HRP) from BioRad or HRP conjugated anti-goat antibody from Santa Cruz Biotechnology, corresponding to the primary antibody. Protein bands were detected using the ECL chemiluminescence kit from Amersham as per the manufacturer's protocol.
(§4) Quantitation of proteins (western) and transcripts (RT-PCR) was performed using the NIH 1.61 image software.

[2] = tested on: CTCL cells; test: Apoptosis in PBL from Sezary syndrome patients; assay type: cell-based, human
Method: as §1

[3] = tested on: Hsc70, Hsp60, grp75, calnexin; test: Western blot of other chaperone proteins in avicin D treated Jurkat cells; assay type: cell-based, human; conditions: avicin D 1 μM, up to 4 hours
Method: as §1, §2
(§5) SDS-PAGE and immunoblot procedures were essentially performed as described (Sambrook, 1989). […] Protein bands were detected using the ECL chemiluminescence kit from Amersham as per the manufacturer's protocol.
as §4

[4] = tested on: Hsp70; test: Western blot of Hsp70 in primary PBL from Sezary syndrome patients; assay type: cell-based, human; conditions: 5 μg/ml, 24 hours
Method: as §1, §2, §5, §4

[5] = tested on: PBL from a normal blood sample; test: Apoptosis in normal PBL; assay type: cell-based, human
Method: as §1

[6] = tested on: Hsp70 transcript; test: Northern blot of Hsp70 transcript in Jurkat cells; assay type: cell-based, human
Text: (§6) Total RNA from the control and avicin treated Jurkat T cells was made using Trizol (Invitrogen). Equal amounts of RNA were separated on form amide gels and transferred to nylon membranes (Hybond N+, Amersham) and UV cross-linked using UV Stratalinker (Stratagene). Staining the membranes with 0.03% methylene blue solution in 0.3% sodium acetate, pH 5.2, monitored equal loading. The DNA probes for Hsp70 and Hsp90 were purchased from StressGen as pUC plasmids and used according to the manufacturer's protocol. The DNA fragments were radiolabeled using a Nick Translation kit from Gibco BRL and [^32P] dCTP (Amersham). The membranes were exposed for autoradiography after hybridization using ExpressHyb (Clontech) solution at 58° C. for 1 hour and 5 washes, each of 20 minutes, with 5× SSC containing 0.1% SDS at 50° C.

[7] = tested on: Hsp27; test: Western blot of Hsp27 protein in avicin D treated Jurkat cells; assay type: cell-based, human; conditions: avicin D 1 μM, 2-4 hours
Method: as §1, §2, §5, §4

[8] = tested on: Hsp90; test: Western blot of Hsp90 protein in avicin D treated Jurkat cells; assay type: cell-based, human; conditions: avicin D 1 μM, within one hour up to 4 hours, western blot vs untreated
Method: as §1, §2, §5, §4

[9] = tested on: ubiquitin-protein conjugates; test: Western blot of ubiquitin-protein conjugates in Jurkat cells; assay type: cell-based, human; conditions: from around 2 hours
Method: as §1, §2, §5

[10] = tested on: Hsp70; test: Western blot of Hsp70 protein in avicin D treated Jurkat cells; assay type: cell-based, human; conditions: avicin D 1 μM, within one hour up to 4 hours, western blot vs untreated
Method: as §1, §2, §3, §4

[11] = tested on: CHIP; test: Western blot of CHIP in Jurkat cells; assay type: cell-based, human; conditions: same conditions as E3α
Method: as §1, §2, §5

[12] = tested on: recombinant Hsp70; test: In vitro ubiquitination assay with recombinant Hsp70, his-ub and CE proteins of treated cells; assay type: biochemical, bovine; conditions: cytoplasmic extracts of treated vs untreated Jurkat cells
Method: Ubiquitination assays were performed as described (Firestein and Feuerstein, 1998) with few modifications using recombinant bovine Hsp70 and N-terminal histidine-tagged ubiquitin (his-ub). About 0.5 μg of Hsp70 and 4 μg of his-ub were incubated in a buffer containing 50 mM Tris-Cl pH 7.5, 2.5 mM MgCl2, 0.05% NP 40, 0.5 mM DTT, 5 mM ATP, 4 μM MG132, and ATP regenerating system containing 10 mM creatine phosphate, 0.1 μg/ml of creatine kinase, and about 50 μg of CE proteins. The reaction was carried out for 1 hour at 30° C. and the products were subjected to nickel agarose chromatographic purification to purify histidine-tagged proteins as per manufacturer's protocol (Qiagen). The affinity-purified proteins were prepared for SDS-PAGE and western analysis using anti-Hsp70 antibodies.

[13] = tested on: E3α ubiquitin ligase; test: Western blot of E3α ubiquitin ligase in Jurkat cells; assay type: cell-based, human; conditions: peak at one hour of treatment
Method: as §1, §2, §5

[14] = tested on: caspase 3; test: Western blot of caspase 3 activation in Jurkat cells; assay type: cell-based, human; conditions: 2-4 hours
Method: as §1, §2, §5

[15] = tested on: HSF1; test: Western blot of HSF1 in cytoplasmic and nuclear extracts of Jurkat cells; assay type: cell-based, human
Method: as §1, §2, §5, §4

[16] = tested on: Hsp70; test: Western blot of Hsp70 in normal PBL; assay type: cell-based, human; conditions: PBL from a normal blood sample, 5 μg/ml, 24 hours
Method: as §1, §2, §5

[17] = tested on: Hsp90 transcript; test: Northern blot of Hsp90 transcript in Jurkat cells; assay type: cell-based, human
Text: as §6

C=C[C@](C)(O)CC/C=C(\CO)C(=O)O[C@H]1[C@H](O)[C@@H](O)[C@H](O[C@@](C)(C=C)CC/C=C(\CO)C(=O)O[C@H]2C[C@]3(C(=O)O[C@@H]4O[C@H](CO)[C@@H](O)[C@H](O)[C@H]4O[C@@H]4O[C@@H](C)[C@H](O[C@@H]5O[C@@H](CO)[C@H](O)[C@H]5O)[C@@H](O[C@@H]5O[C@H](CO)[C@@H](O)[C@H](O)[C@H]5O)[C@H]4O)[C@H](O)C[C@]4(C)C(=CC[C@@H]5[C@@]6(C)CC[C@H](O[C@@H]7O[C@H](CO[C@@H]8O[C@H](C)[C@H](O)[C@H](O)[C@H]8O[C@@H]8OC[C@@H](O)[C@H](O)[C@H]8O)[C@@H](O)[C@H](O)[C@H]7NC(C)=O)C(C)(C)[C@@H]6CC[C@]54C)[C@@H]3CC2(C)C)O[C@@H]1C [avicin D]
XIAP degraded ([1]; by 1 hour): ~60%
XIAP protein level ([1]; starting at 1 hour post treatment): significant decrease
apoptosis [2]: caused apoptosis
expression of other chaperone proteins (Hsc70, Hsp60, grp75, calnexin) [3]: did not show any change
decrease in Hsp70 protein [4]: 25-35%
apoptosis [5]: resistant to apoptosis
increase in Hsp70 transcript (Northern blot) [6]: ~1.4 fold
increase of Hsp27 [7]: 1.4 fold
protein levels of Hsp90 [8]: significant decrease
ubiquitin-protein conjugates in cell extracts [9]: protein conjugates observed
protein levels of Hsp70 [10]: significant decrease
levels of CHIP [11]: No significant change
in vitro ubiquitination of Hsp70 (his-ub-Hsp70 ladder) [12]: stronger ladder of his-ub-Hsp70
E3α protein level [13]: dramatic increase
caspase 3 activation [14]: caspase 3 activation
increase in the levels of nuclear HSF1 ([15]; 4 hours, nuclear extract, densitometric scanning): ~1.5 fold
cytoplasmic content of HSF1 protein ([15]; cytoplasmic extract): No apparent change
change in Hsp70 protein [16]: no significant change
increase in Hsp90 transcript (Northern blot) [17]: ~2 fold
